Results taken from patent publication US6593369B2, “Methods, compositions, and kits for enhancing female sexual desire and responsiveness” (Vivus, Inc., priority 1997, dated 2003).
In brackets after ≈: the same amount, converted by molar mass.

Tests used:
clitoris [1] = assay: Measurement of clitoral skin temperature after topical application to the clitoris; format: in vivo, human
From the text: 2. Measurement of clitoral skin temperature:
A highly sensitive thermocouple capable of determining changes in skin temperature of 0.002 degrees Fahrenheit was connected to a computer-based recording device (F1000 by Focused Technology, Inc.) and used to measure changes in clitoral skin temperature. The patient changed from their clothes into a gown and was placed in a semi-reclining position in a comfortable recliner. Room temperature was controlled at 76 degrees F. (±1) and no air drafts were present. The thermocouple was coated with a small amount of lubricating jelly and placed in a labial skin fold adjacent to the clitoris. A period of equilibration (˜15 minutes) allowed the measured temperature to stabilize. Next, precise doses of various pharmaceuticals were applied as solutions directly to the clitoris by a calibrated micropipette (Justor 1100DG, Sigma; St. Louis, Mo.). Typical volumes used were 20-50 microliters. Clitoral temperatures were continually measured and printed for analysis. Increases in skin temperature directly correlate with changes in cutaneous blood flow. See Birnbaum (U.S. Pat. No. 4,311,707) for an example of using this method to compare the relative vasodilatory potency of topical prostaglandins. Changes in skin temperature are reported as maximum recorded temperature in an interval minus the temperature at the end of the equilibration period. The magnitudes of these recorded temperature changes may be used as a measurement of the change in clitoral blood flow.
(§1) 1. Solutions of prostaglandin E-1 and E-2 were prepared by dissolving weighed amounts of the prostaglandin in triacetin to produce a concentrated stock solution. Serial dilutions of this stock solution were made by a micropipette. Since triacetin can partially hydrolyze on standing to produce traces of acetic acid, the triacetin was treated with a small amount of a concentration potassium bicarbonate solution to remove any acetic acid, then dried with magnesium sulfate and filtered to give a triacetin free of acid or water. Solutions were used the same day that they were made. Concentrations of prostaglandin varied from 2.0-1,000 micrograms per milliliter of triacetin. Following equilibration of clitoral temperature, a dose of triacetin was applied to the clitoris prior to active drug solutions to determine the effect of the carrier on the clitoris.
(§2) 2. R-alphamethylhistamine hydrochloride is not soluble in triacetin but is soluble in saline. Normal saline +2 millimolar potassium phosphate at pH 7.4 was used to prepare solutions of R-alphamethylhistamine hydrochloride with concentrations from 2.5-100 micrograms per milliliter of saline.
(§3) Solutions were applied directly to the clitoris by means of a calibrated micropipette (Justor 1100DG, Sigma; St. Louis, Mo.).

clitoris [2] = assay: Patient subjective reports of sexual arousal and symptoms after application to the clitoris; format: in vivo, human
Experimental: 3. Patient Subjective Reports:
Patient reports of symptoms and effects of agents on sexual arousal measures (such as warmth and tingling, vaginal lubrication and excitation) were recorded. Blood pressure and pulse were also recorded. Different drugs were given on different days. Some series of drug titrations were recorded on several days.
as §1, §2, §3

clitoral artery = assay: Measurement of clitoral blood flow by ultrasound (Doppler velocitometer); format: in vivo, human; conditions: Patient No. 1; for Change in Clitoral Blood Flow: peak systolic flow vs baseline; for Change in Clitoral Blood Flow, percent in brackets: vs baseline
From the text: 1. Measurement of clitoral blood flow by ultrasound:
Clitoral blood flow was estimated by utilizing the Knoll-Midas ultrasonic Doppler velocitometer (Urometrics, Inc.). The ultrasound probe was manually positioned over the middle of the clitoral body as it courses superficially through the perineum between the external vaginal opening and the end of the clitoris (glans clitoris). […] This method is analogous to that used in measuring the cavernosal artery velocity in the penis. The clitoral artery was easily visualized. Measurements were made at baseline and at various time intervals following the application of a drug to the clitoris. Peak systolic blood flow at baseline was compared to peak systolic blood flow following drug administration as a method of comparing relative efficacy in inducing clitoral artery vasodilatation in a manner analogous to studies of such drugs in men.
as §1, §3

Solubility in water = format: physicochemical
Experimental: 5 mg of PGE-2 is added to sterile cold water (10 ml, 1 mM in sodium citrate), stirred until dissolved and the pH adjusted with either NaOH or HCl, to a pH of about 5.4.

[3] = Patient No. 1, 1.0 mcg in saline on clitoris
[4] = Patient No. 1, 10.0 mcg in saline on clitoris
[5] = Patient No. 1, 100.0 mcg in saline on clitoris
[6] = Patient No. 1, 0.400 mcg in triacetin on clitoris
[7] = Patient No. 1, 1.000 mcg in triacetin on clitoris
[8] = Patient No. 1, 20.0 mcg in triacetin on clitoris
[9] = Patient No. 1, 50.0 mcg in triacetin on clitoris
[10] = Patient No. 1, 200.0 mcg in triacetin on clitoris
[11] = Patient No. 2, 1.000 mcg in triacetin on clitoris
[12] = Patient No. 2, 10.0 mcg in triacetin on clitoris
[13] = Patient No. 2, 100.0 mcg in triacetin on clitoris

**Q.** For `C[C@@H](N)Cc1c[nH]cn1.Cl` [R-alphamethylhistamine, R-alphamethylhistamine hydrochloride], which “Overall effect on temperature and sexual excitement” value (clitoris [1]; Patient No. 1) is on record?
**A.** The value was “decreased temperature and decreased sexual excitement”.

**Q.** What about the “Temperature Change” value (clitoris [1]; [3]) of the same molecule?
**A.** Its value is −0.1 ° F.

**Q.** And the “Temperature Change” value (clitoris [1]; [4])?
**A.** Its value is −0.5 ° F.

**Q.** What about the “Temperature Change” value (clitoris [1]; [5]) of the same molecule?
**A.** Its value is 0.1 ° F.

**Q.** And the “Subjective Response” value (clitoris [2]; [3])?
**A.** The value was “None”.

**Q.** What about the “Subjective Response” value (clitoris [2]; [4]) of the same molecule?
**A.** Its value is “Numb feeling in clitoris”.

**Q.** What about the “Subjective Response” value (clitoris [2]; [5]) of the same molecule?
**A.** Its value is “Clitoral burning; 2/10;”.

**Q.** For `CCCCC[C@H](O)/C=C/[C@H]1[C@H](O)CC(=O)[C@@H]1CCCCCCC(=O)O` [PGE-1, 3-hydroxy-2-(3-hydroxy-1-octenyl)-5-oxocyclopentaneheptanoic acid], which “Temperature Change” value (clitoris [1]; [6]) is on record?
**A.** The value was −0.6 ° F.

**Q.** What about the “Temperature Change” value (clitoris [1]; [7]) of the same molecule?
**A.** Its value is 0.3 ° F.

**Q.** And the “Temperature Change” value (clitoris [1]; [8])?
**A.** The value was 0.3 ° F.

**Q.** And the “Temperature Change” value (clitoris [1]; [9])?
**A.** The value was 0.1 ° F.

**Q.** What about the “Temperature Change” value (clitoris [1]; Patient No. 1, 100.0 mcg in triacetin on clitoris) of the same molecule?
**A.** The value was 2.7 ° F.

**Q.** What about the “Temperature Change” value (clitoris [1]; [10]) of the same molecule?
**A.** Its value is 0.4 ° F.

**Q.** What about the “Clitoral temperature effect (conclusion)” value (clitoris [1]; Patient No. 2) of the same molecule?
**A.** Its value is “did not have a temperature increase”.

**Q.** What about the “Temperature Change” value (clitoris [1]; [11]) of the same molecule?
**A.** Its value is −0.35 ° F.

**Q.** What about the “Temperature Change” value (clitoris [1]; [12]) of the same molecule?
**A.** Its value is −0.10 ° F.

**Q.** What about the “Temperature Change” value (clitoris [1]; [13]) of the same molecule?
**A.** Its value is −0.10 ° F.

**Q.** What about the “Change in Clitoral Blood Flow” value (clitoral artery; 20.0 mcg in triacetin) of the same molecule?
**A.** The value was 4 cm/s.

**Q.** What about the “Change in Clitoral Blood Flow, percent in brackets” value (shortened to “Change … percent in brackets”) (clitoral artery; 20.0 mcg in triacetin) of the same molecule?
**A.** Its value is “+46%”.

**Q.** What about the “Change in Clitoral Blood Flow” value (clitoral artery; 50.0 mcg in triacetin) of the same molecule?
**A.** Its value is 3.5 cm/s.

**Q.** And the “Change … percent in brackets” value (clitoral artery; 50.0 mcg in triacetin)?
**A.** Its value is “+32%”.

**Q.** What about the “Change in Clitoral Blood Flow” value (clitoral artery; 100.0 mcg in triacetin) of the same molecule?
**A.** The value was 6.5 cm/s.

**Q.** What about the “Change … percent in brackets” value (clitoral artery; 100.0 mcg in triacetin) of the same molecule?
**A.** Its value is “+33%”.

**Q.** And the “Change in Clitoral Blood Flow” value (clitoral artery; 200.0 mcg in triacetin)?
**A.** Its value is 11 cm/s.

**Q.** What about the “Change … percent in brackets” value (clitoral artery; 200.0 mcg in triacetin) of the same molecule?
**A.** The value was “+80%”.

**Q.** What about the “Doses giving pleasurable feelings” value (clitoris [2]; Patient No. 1) of the same molecule?
**A.** Its value is ≥ 20 µg.

**Q.** And the “Doses with adverse effects” value (clitoris [2]; Patient No. 1)?
**A.** The value was “adverse effects at all doses”.

**Q.** And the “Subjective Response” value (clitoris [2]; [6])?
**A.** Its value is “Felt cold”.

**Q.** What about the “Subjective Response” value (clitoris [2]; [7]) of the same molecule?
**A.** The value was “Clitoral burning; 6/10;”.

**Q.** And the “Subjective Response” value (clitoris [2]; [8])?
**A.** Its value is “Clitoral burning; 4/10”.

**Q.** And the “Subjective Response” value (clitoris [2]; [9])?
**A.** Its value is “Exciting. Jaw pain”.

**Q.** What about the “Subjective Response” value (clitoris [2]; [10]) of the same molecule?
**A.** Its value is “Diffuse pain, flushing,”.

**Q.** And the Overall effects (clitoris [2]; Patient No. 2)?
**A.** Its Overall effects is “neither positive nor negative effects”.

**Q.** And the “Subjective Response” value (clitoris [2]; [11])?
**A.** The value was “Felt drop go on. No”.

**Q.** And the “Subjective Response” value (clitoris [2]; [12])?
**A.** Its value is “Felt drop go on. No”.

**Q.** And the “Subjective Response” value (clitoris [2]; [13])?
**A.** Its value is “Felt nothing”.

**Q.** And the solubility (Solubility in water)?
**A.** The solubility was 80 µg/mL (≈ 226 µM).
